# In patent publication US20180201650A1 (BGI SHENZHEN, priority 2014, published 2018):
# “Also recorded” adds a separate entry of the source.
# Test system: HVA calcium channel
# Format: cell-based, rat
sequence,measurement,setting,value
GICCVDDTCTTHSGCL [κ-CPTx-btl05],current after loading (pA),,−62.59 pA
same,current before loading (pA),,−391.32 pA
same,inhibition of HVA calcium channel currents compared with Nifedipine (in words),,inhibitory effect is higher than that of Nifedipine; also recorded: higher inhibition rate on HVA calcium channel currents than Nifedipine
same,inhibition rate (%),10 μM,83.24%
